Source: PMC11513923, “Discovery of ZLC491 as a Potent, Selective, and Orally Bioavailable CDK12/13 PROTAC Degrader” (Journal of Medicinal Chemistry, 2024)

How the values were obtained:
[1] = tested on: DDR genes; test: RT-qPCR of DDR genes in MDA-MB-231 cells; type: cell-based, human; details: MDA-MB-231, different doses, 12 h
Experimental: We next evaluated the effect of ZLC491 on the expression of DDR genes regulated by CDK12/13.
(A) Transcription level of DDR genes in MDA-MB-231 cells determined by RT-qPCR upon the treatment with vehicle or ZLC491 at different doses for 12 h, ROR1 was used as a negative control; (B) immunoblotting of DDR proteins in MDA-MB-231 cells after the treatment of ZLC491 at different doses for 48 h; (C) cell antiproliferative activity of ZLC491 in multiple TNBC cells as well as several noncancerous cells. Cells were treated with the compound for 5 days; (D,E) antiproliferative potency of cisplatin or olaparib alone or combined with ZLC491 at different doses in MDA-MB-231 cells for 5 days. Data are plotted using the percentage of absorbance relative to DMSO controls. (F) IC50 values and combination index (CI) in drug combination assay. In this model, CI scores estimate the interaction between the two drugs. If CI < 1, the drugs have a synergistic effect and if CI > 1, the drugs have an antagonistic effect. […]
RNA utilized for RT-qPCR was extracted as outlined below. […] Expression was normalized to GAPDH, and fold change in expression was calculated relative to the indicated conditions using ΔΔCt method.

[2] = tested on: CDK12 and CDK13; test: Pharmacodynamic study in MDA-MB-231 xenografted mouse model, Western blot of tumor tissues; type: in vivo; details: 100 and 200 mg/kg orally, 5 consecutive days, vs vehicle, MDA-MB-231 xenograft mice
Experimental: We further performed pharmacodynamic studies of ZLC491 in an MDA-MB-231 xenografted mouse model. ZLC491 was orally administrated at two doses of 100 and 200 mg/kg, respectively, for 5 consecutive days (Figure 7A). Tumor tissues were harvested on day 5 and subjected to Western blot analysis. […] Additionally, we conducted further histological analysis on the tumors following ZLC491 treatment.
Figure 7 ZLC491 depleted CDK12 and CDK13 proteins in vivo. (A) Study design of pharmacodynamics assessment on target engagement of ZLC491 in the MDA-MB-231 xenograft model; (B) immunoblotting of CDK12, CDK13, and α-tubulin in tissue lysate of MDA-MB-231 xenografts model after ZLC491 treatment; (C) protein levels were quantified using ImageJ and normalized to corresponding α-tubulin, then plotted using GraphPad Prism 8.0; (D) immunohistochemistry (IHC) analysis on the tumors by H&E staining and TUNEL assays; (E) TUNEL histology scores were analyzed and plotted by GraphPad Prism 8.0; (F) body weight change during the treatment.
The pharmacodynamics experiments were performed under an approved animal protocol by the Institutional Animal Care & Use Committee of the University of Michigan. Six- to eight-week-old CB17SCID female (Charles River Laboratory) mice were in a regular SPF housing room prior to cell injection. […]

N#Cc1ccc(N[C@H]2CC[C@H](N(C(=O)NCc3ccccc3)c3ccc(N4CCN(C5CCN(c6cc7c(cc6F)C(=O)N(C6CCC(=O)NC6=O)C7=O)CC5)CC4)cc3)CC2)nc1 (some centres unmarked) [ZLC491, 3-Benzyl-1-((1r,4r)-4-((5-cyanopyridin-2-yl)amino)cyclohexyl)-1-(4-(4-(1-(2-(2,6-dioxopiperidin-3-yl)-6-fluoro-1,3-dioxoisoindolin-5-yl)piperidin-4-yl)piperazin-1-yl)phenyl)urea]
transcription of DDR genes (ATM, ATR, BRCA1, BRCA2, FANCD2, SMARCC) [1]: concentration-dependently suppressed
CDK12 and CDK13 proteins in tumor tissues [2]: significantly depleted
